5 molecules from patent publication US20100068150A1, “Selective Caspase Inhibitors” (The Board of Trustees of the Leland Stanford Junior …, priority 2006, published 2010) can be followed below.

Holding throughout (assay type): biochemical
One experiment deals with T1, Caspase-3 (Homo sapiens, UniProt P42574).
T1 sequence (P42574 29-175 limits assumed): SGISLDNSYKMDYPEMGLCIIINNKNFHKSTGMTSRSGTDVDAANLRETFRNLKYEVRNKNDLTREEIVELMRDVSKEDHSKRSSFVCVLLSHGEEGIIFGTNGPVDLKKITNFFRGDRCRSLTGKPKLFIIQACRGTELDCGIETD
T1 sequence (P42574 176-277 limits assumed): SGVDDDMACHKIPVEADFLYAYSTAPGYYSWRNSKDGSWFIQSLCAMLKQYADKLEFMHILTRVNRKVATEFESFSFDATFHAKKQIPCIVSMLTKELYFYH
In words: Kinetic compound screening, progress curve method, caspase-3. To be noted: for Ki(app) Caspase-3: Table III, Ki(app) = Kass or Kobs/I, 5 nM active caspase-3; for Caspase-3 Ki(app): Table IV. The text has this: (§1) Table III below presents Ki(app) values for select AB compounds. Ki(app) values (also called Kass or Kobs/I) represent the speed of inhibitor binding to a target enzyme. Units are [M^−1s^−1]. NI indicates no inhibition at concentrations tested. Parent compounds AB09, ABo8, and AB07 that include the optimal substrate specificity sequences for caspases-3, […] as determined by Thornberry and colleagues (Thornberry et al., 19970 are included between double lines.
(§2) The inhibitors AB07 (NP-LEHD-AOMK, caspase-9), AB08 (NP-LETD-AOMK, caspase-8), and AB09 (NP-DEVD-AOMK, caspase-3) were synthesized and kinetic inhibition constants (Kiapp) were obtained for all compounds for caspases 3, 7, 8 and 9 using the progress curve method for pseudo-first order reactions kinetics (Salvesen, 1989) (structures shown in Table I). […] Ki(app) values (also called Kass or Kobs/I) represent the speed of inhibitor binding to a target enzyme. Units are [M-1s-1]. NI indicates no inhibition at concentrations tested, ND indicates data not determined, SD indicates standard deviation.
(§3) Compound screening was completed using the progress curve method as described (Salvesen, 1989). All screening was carried out in caspase reaction buffer. The caspase-9 specific compounds AB38, 40, 41 and 42 were screened in caspase reaction buffer and in caspase buffer with 1M sodium citrate instead of sucrose as described (Pop, 2006) The concentrations of active caspases used is as follows: 5 nM active caspase-3, 5 nM active caspase-7, 10 nM active caspase-8, and 50 nM active caspase-9. To ensure full activation, caspases 3/7, 8 and 9 were preincubated at 37° C. for 5, 10, or 40 minutes respectively before kinetic measurements were made.

In a further experiment the target is T2, Caspase-7 (Homo sapiens, UniProt P55210).
T2 sequence (P55210 1-303): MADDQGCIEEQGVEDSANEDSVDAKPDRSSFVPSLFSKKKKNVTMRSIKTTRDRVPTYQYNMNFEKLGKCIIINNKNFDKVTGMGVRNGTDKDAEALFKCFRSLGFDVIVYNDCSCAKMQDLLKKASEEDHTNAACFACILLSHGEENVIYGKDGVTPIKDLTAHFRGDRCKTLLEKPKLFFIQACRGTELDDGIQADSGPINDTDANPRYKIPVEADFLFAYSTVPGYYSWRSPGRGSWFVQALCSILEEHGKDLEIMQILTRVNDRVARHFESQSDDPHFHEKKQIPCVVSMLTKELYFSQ
As to the kind of experiment: Kinetic compound screening, progress curve method, caspase-7. To be noted: for Ki(app) Caspase-7: Table III, Ki(app) = Kass or Kobs/I, 5 nM active caspase-7; for Caspase-7 Ki (app): Table IV.
Excerpt: as §1, §2, §3

The next experiment concerns the target Caspase-8 (Homo sapiens, UniProt Q14790). In words: Kinetic compound screening, progress curve method, caspase-8. To be noted: for Ki(app) Caspase-8: Table III, Ki(app) = Kass or Kobs/I, 10 nM active caspase-8; for Caspase-8 Ki (app): Table IV, NI = no inhibition at concentrations tested.
Excerpt: as §1, §2, §3

For a further experiment, the target named is T3, Caspase-9 (Homo sapiens, UniProt P55211).
T3 sequence (P55211 1-416): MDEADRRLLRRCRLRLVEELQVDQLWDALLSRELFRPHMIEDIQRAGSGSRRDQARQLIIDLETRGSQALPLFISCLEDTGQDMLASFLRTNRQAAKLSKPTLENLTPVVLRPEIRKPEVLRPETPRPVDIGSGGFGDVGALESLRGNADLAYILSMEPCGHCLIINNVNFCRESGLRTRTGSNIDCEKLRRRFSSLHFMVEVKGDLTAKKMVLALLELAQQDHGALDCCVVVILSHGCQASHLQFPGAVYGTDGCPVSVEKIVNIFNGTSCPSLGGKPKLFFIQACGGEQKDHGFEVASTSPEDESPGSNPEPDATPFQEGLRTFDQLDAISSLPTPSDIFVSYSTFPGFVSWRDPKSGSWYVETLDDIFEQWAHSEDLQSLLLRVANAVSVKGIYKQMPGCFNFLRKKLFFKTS
As to the kind of experiment: Kinetic compound screening, progress curve method, caspase-9. The settings on record: NI = no inhibition at concentrations tested; for Ki(app) Caspase-9: Table III, Ki(app) = Kass or Kobs/I, 50 nM active caspase-9; for Caspase-9 Ki (app): Table IV.
Excerpt: as §1, §2, §3

The subject of experiment [1] is recombinant caspases-3, 7, 8 and 9. In words: Indirect competition with general probe KMB01 on individual recombinant caspases. To be noted: 100 nM caspase, inhibitor 30 min, then 5 μM KMB01 30 min; range of concentrations. How it is done: (a.) Indirect competition of a panel of inhibitors with the general caspase probe KMB01. Individual caspases-3, 7, 8 and 9 (100 nM each) were incubated with the indicated inhibitors for 30 minutes followed by a 30 minute incubation with KMB01. Samples were analyzed by SDS-PAGE and residual active site labeling was visualized by biotin blotting using streptavidin-HRP. (b.) Direct labeling of caspase active sites using specific ABPs. Equal amounts of active caspaseses-3, 8, and 9 ([…]) were incubated together with increasing concentrations of each of the indicated biotinylated active site probes for 30 minutes. Active site labeling was visualized by SDS-PAGE analysis followed by biotin blotting using streptavidin HRP. (*) Indicates labeling of the full-length form of caspase-3 that is only observed using recombinant enzyme preparations.
We initially focused on recombinant caspase3, 7, 8, and 9. Each caspase was individually pre-incubated with our optimal series of selective inhibitors at a range of concentrations and residual activity was measured by addition of the general caspase probe KMB01. Overall, the competition data mirrored the kinetic data with caspase-3 and 8-specific compounds showing specific competition of the desired target.
This was shown by analysis of inhibitor and probe selectivity by indirect competition and direct labeling of recombinant caspases. Indirect competition of a panel of inhibitors with the general caspase probe KMB01 was carried out with individual caspases-3, 7, 8 and 9 (100 nM each), which were incubated with the specific inhibitors for 30 minutes followed by a 30-minute incubation with KMB01. Samples were analyzed by SDS-PAGE and residual active site labeling was visualized by biotin blotting using streptavidin-HRP. Also, the direct labeling of caspase active sites was carried out using specific ABPs. Equal amounts of active caspaseses-3, 8, and 9 ([…]) were incubated together with increasing concentrations of each of the indicated biotinylated active site probes for 30 minutes. Active site labeling was visualized by SDS-PAGE analysis followed by biotin blotting using streptavidin HRP.
For all competition and direct labeling experiments recombinant caspases were pre-incubated in caspase reaction buffer for 15 minutes at 37° C. For competition experiments, 100 nM of active site titrated caspase was incubated for 30 minutes at 37° C. with appropriate inhibitor and then residual active sites were labeled with 5 μM KMB01 for an additional 30 minutes. For direct labeling, 100 nM caspase-3, 8, and 9 were incubated together in the presence of appropriate ABPs at the indicated concentrations for 30 min at 37° C.

Sequence of Caspase-8 (Q14790 217-479): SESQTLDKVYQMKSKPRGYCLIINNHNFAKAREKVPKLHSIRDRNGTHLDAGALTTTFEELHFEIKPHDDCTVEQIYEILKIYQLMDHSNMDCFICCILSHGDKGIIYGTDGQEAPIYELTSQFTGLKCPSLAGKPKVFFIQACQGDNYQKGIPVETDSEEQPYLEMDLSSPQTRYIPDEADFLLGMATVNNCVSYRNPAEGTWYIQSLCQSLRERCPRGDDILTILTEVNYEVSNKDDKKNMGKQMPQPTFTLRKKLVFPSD

With `CC[C@H](NC(=O)[C@@H](CCC(=O)O)NC(=O)c1ccccc1N)C(=O)N[C@@H](CC(=O)O)C(=O)COC(=O)c1c(C)cccc1C` [AB28, NH2-6-E-8-D-DMBA], on Caspase-3, the “Ki(app) Caspase-3” value is 1,020,213 M^−1s^−1 and the “Caspase-3 Ki(app)” value is 1,020,213 M-1s-1. In addition, at Caspase-7, the “Ki(app) Caspase-7” value is given as 272,619 M^−1s^−1 and the “Caspase-7 Ki (app)” value is listed as 272,619 M-1s-1. In addition, at Caspase-8, the “Ki(app) Caspase-8” value is listed as 817,077 M^−1s^−1 and the “Caspase-8 Ki (app)” value is 817,077 M-1s-1. Besides, at Caspase-9, the “Ki(app) Caspase-9” value is 300,767 M^−1s^−1 and the “Caspase-9 Ki (app)” value is on record as 300,767 M-1s-1. Besides, in experiment [1], the “competition for KMB01 labeling of recombinant caspases” value (“competition for KMB01 labeling” for short) was “blocked labeling of all four caspases targets”.
For the molecule `CCC(C)C(NC(=O)Cc1ccc(O)c([N+](=O)[O-])c1)C(=O)N[C@@H](CC(C)C)C(=O)N1CSCC1C(=O)N[C@@H](CC(=O)O)C(=O)COC(=O)c1c(C)cccc1C` (stereo partly drawn) [AB41, Np-I-L-38-D-AOMK], at Caspase-3, the “Ki(app) Caspase-3” value is 1,582,350 M^−1s^−1 and the “Caspase-3 Ki(app)” value is 1,582,350 M-1s-1. Also, at Caspase-7, the “Ki(app) Caspase-7” value is recorded as 69,317 M^−1s^−1 and the “Caspase-7 Ki (app)” value is recorded as 69,317 M-1s-1. Also, at Caspase-8, the “Ki(app) Caspase-8” value is 49,815 M^−1s^−1 and the “Caspase-8 Ki (app)” value is 49,815 M-1s-1. Further, on Caspase-9, the “Ki(app) Caspase-9” value is given as 35,779 M^−1s^−1 and the “Caspase-9 Ki (app)” value was 35,779 M-1s-1. In addition, the “competition for KMB01 labeling” value in experiment [1] is recorded as “no specific inhibition”.
Turning to `CCC(C)C(NC(=O)Cc1ccc(O)c([N+](=O)[O-])c1)C(=O)NC(Cc1ccccc1)C(=O)N1CCCC1C(=O)N[C@@H](CC(=O)O)C(=O)COC(=O)c1c(C)cccc1C` (stereo partly drawn) [AB42, NP-I-F- P-D-AOMK], at Caspase-3, the “Ki(app) Caspase-3” value is 892,045 M^−1s^−1 and the “Caspase-3 Ki(app)” value is listed as 892,045 M-1s-1. At Caspase-7, the “Ki(app) Caspase-7” value was 42,594 M^−1s^−1 and the “Caspase-7 Ki (app)” value was 42,594 M-1s-1. For the same molecule, at Caspase-8, the “Ki(app) Caspase-8” value is 22,544 M^−1s^−1 and the “Caspase-8 Ki (app)” value is 22,544 M-1s-1. Further, on Caspase-9, the “Ki(app) Caspase-9” value is 44,709 M^−1s^−1 and the “Caspase-9 Ki (app)” value is 44,709 M-1s-1. In addition, the “competition for KMB01 labeling” value in experiment [1] is “minimal degree of selectivity for caspase-9 over caspase-8”.
`Cc1cccc(C)c1C(=O)OCC(=O)[C@H](CC(=O)O)NC(=O)[C@H](C)NC(=O)[C@H](CC(C)C)NC(=O)C1CCCN1C(=O)Cc1ccc([N+](=O)[O-])c(O)c1` (stereo partly drawn) [AB38, Np-P-L- A-D-AOMK]: on Caspase-3, the “Ki(app) Caspase-3” value was 46,108 M^−1s^−1 and the “Caspase-3 Ki(app)” value is 46,108 M-1s-1. At Caspase-7, the “Ki(app) Caspase-7” value is reported as 27,814 M^−1s^−1 and the “Caspase-7 Ki (app)” value was 27,814 M-1s-1. In addition, at Caspase-8, the “Ki(app) Caspase-8” value is reported as 19,676 M^−1s^−1 and the “Caspase-8 Ki (app)” value was 19,676 M-1s-1. In addition, at Caspase-9, the “Ki(app) Caspase-9” value is on record as 18,004 M^−1s^−1 and the “Caspase-9 Ki (app)” value is on record as 18,004 M-1s-1. Further, in experiment [1], the “competition for KMB01 labeling” value was “minimal degree of selectivity for caspase-9 over caspase-8”.
On to `Cc1cccc(C)c1C(=O)OCC(=O)[C@H](CC(=O)O)NC(=O)[C@H](Cc1cc[nH]c1)NC(=O)[C@H](CCC(=O)O)NC(=O)[C@H](CC(C)C)NC(=O)Cc1ccc(O)c([N+](=O)[O-])c1` [AB07, Np-L-E- H-D-DMBA], for which, on Caspase-3, the “Ki(app) Caspase-3” value is listed as 75,295 M^−1s^−1 and the “Caspase-3 Ki(app)” value is on record as 75,295 M-1s-1. On Caspase-7, the “Ki(app) Caspase-7” value was 10,447 M^−1s^−1 and the “Caspase-7 Ki (app)” value was 10,447 M-1s-1. In addition, on Caspase-8, the “inhibition of caspase-8, in words” value is “more rapid inhibition of caspase-8”; the “Ki(app) Caspase-8” value is reported as 506,912 M^−1s^−1; the “Caspase-8 Ki (app)” value is 506,912 M-1s-1. Also, at Caspase-9, the “Ki(app) Caspase-9” value is recorded as 20,141 M^−1s^−1 and the “Caspase-9 Ki (app)” value is 41 M⁻¹ s⁻¹.
